Source: US20080206198A1, “Compounds and methods for pharmico-gene therapy of epithelial sodium channel associated disorders” (priority 2003, published 2008)
“And” between values parts separate entries of the source, which are not always exact repeats. Equal entries are not always repeated. Peptide text beside a SMILES is read from it. * marks the point of attachment. Cbz = O=C(OCc1ccccc1)*

What was measured:
[1] = tested on: mouse lung; test: AV.LacZ gene transfer to mouse lung with Z-LLL (X-gal morphometry); format: in vivo
Method: In vivo studies in mice. Animal studies were performed in accordance with the institutional guidelines of the University of Iowa. To determine the effect of the proteasome inhibitor on AAV mediated gene transfer in mouse lung, 6 week-old BALB/c mice were lightly anesthetized using a methoxyflurane chamber. AV.LacZ (5×10^10 particles) was administered alone or with 400 μM Z-LLL in a 10 μl instillation by nasal aspiration as described by Walters et al. (2000). To prevent unforeseen toxicity of DMSO solvent, the proteasome inhibitor Z-LLL was dissolved in ethanol as a 40 mM stock solution and was included in the viral inoculum at 1% final concentration. Viral infection controls in the absence of Z-LLL also contained a 1% final concentration of ethanol. […] The trachea was incubated and instilled at 10 cm of water pressure with the following solutions in order: PBS, 0.5% glutaraldehyde, 1 mM MgCl2/PBS, and finally X-gal staining reagent for an overnight incubation at room temperature. The X-gal stained mouse lungs were then post fixed in 10% neutral buffered formalin for 48 hours at room temperature and cryopreserved in serial 10%, 20% and 30% sucrose/PBS solutions. Lungs (N=3 for each condition) were embedded in OCT (optimal cutting temperature; Baxter, Warrendale, Pa.) and 15 μm serially sections were analyzed for gene transfer by calculating the percentage of positive cells in the airway epithelium. The diameter of the airway was recorded for classification (>360 μm, 260-350 μm, 160-250 μm, <150 μm) of results following morphometric analysis. Greater than 150 airway cross-sections were quantified for each experimental condition.

[2] = tested on: polarized bronchial epithelia cells; test: S^35-labeled rAAV binding/entry and in situ localization in polarized bronchial epithelia; format: cell-based, human
Method: Viral binding/entry assays and in situ localization of viral particles. To assess the binding of rAAV to polarized bronchial epithelia cells, S^35-labeled AV.GFP3ori was applied to either the apical or basal surface (MOI=50,000 particles/cell), followed by incubation at 4° C. for 60 minutes. Combined binding/entry of rAAV into differentiated airway epithelia was measured under the same conditions, except that the cultures were incubated at 37° C. for an additional 2-24 hours before they were harvested. These combined viral binding/entry assays were performed under identical infection conditions to those used for functional studies of rAAV transduction with transgene expression as an endpoint. After washing three times in PBS, cells were lysed in situ by the addition of 5 ml of liquid scintillation cocktail at room temperature for 5 minutes, and the radioactivity was quantitated in a scintillation counter.
To analyze the subcellular localization of the rAAV particles within polarized human bronchial epithelial cells, infection was performed by applying S^35 labeled virus (MOI=50,000 particles/cell) to either the mucosal or serosal surface. At 2 hours post-infection, transwells were washed with medium three times and fixed in 4% paraformaldehyde overnight prior to cryoprotection and embedding for frozen sectioning. 10 μm frozen sections were overlaid with photoemulsion and developed for 5 weeks according to a previously published protocol (Duan et al., 1998).

[3] = tested on: polarized human airway epithelial cultures; test: AV2.RSVluc and AV2.RSVlucCap5 transduction of polarized human airway epithelial cultures; format: cell-based; settings: virus applied to the apical surface
Excerpt: To better understand serotype-specific differences in airway transduction, the effect of proteasome inhibitors on rAAV-2 and rAAV-5 transduction in polarized human airway epithelial cultures and mouse lung was examined (FIGS. 2 and 6).

[4] = 400 μM Z-LLL intranasal, 150 days

Compound | airway cells transduced by AV.LacZ, average [1, 4] | airways cells in the smaller bronchioles (<150 mm) expressing β-galactosidase [1, 4] [%] | range of transgene expression in distal airways [1, 4] [%] | range of transgene expression in proximal airways [1, 4] [%] | transduction efficiency in larger bronchioles (>350 mm), mean % of the airway epithelium [1, 4] | transgene expression by X-gal staining ([1]; 3 and 10 days post infection) | rAAV binding ([2]; 4° C.) | uptake of S^35 labeled rAAV ([2]; 2 hour infection period at 37° C.) | intracellular distribution of radiolabeled rAAV particles ([2]; 2 hours post-infection, photoemulsion overlay) | intracellular radioactivity ([2]; 24 hours post-infection) | increase in AV2.RSVlucCap5 transduction [3] [fold]
CC(C)C[C@@H](C=O)NC(=O)[C@H](CC(C)C)NC(=O)[C@H](CC(C)C)NC(=O)OCc1ccccc1 [Z-LLL, N-carbobenzoxyl-L-leucinyl-L-leucinyl-L-leucinal] (Cbz-Leu-Leu-Leu-aldehyde) | about 5.88% | 1.37±0.41 | 0 to 4 | 5 to 18 | 10.36±1.63% and 10.36+/−1.63% | no detectable transgene expression |  |  |  |  | 
N-acetyl-L-leucinyl-L-leucinal-L-norleucinal [LLnL] |  |  |  |  |  |  | no significant effect | not altered | significant shift to nuclear associated grains | very significant decrease | 12
